Data reported in PubChem BioAssay (NCI).
Where “and” joins values, the source holds several entries; their conditions need not be identical. Equal entries are not always repeated.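 In this assay, cells in 96-well plates receive the compound at five concentrations for 48 hours. Endpoints are linearly interpolated between the surrounding concentrations. GI50 marks 50% less growth. TGI denotes the concentration required for complete inhibition of growth.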

Tests used:
Assay in all cases: growth of human tumour cells (NCI), 48 h
[1] = tested on: U251 CNS
[2] = tested on: CCRF-CEM leukemia
[3] = tested on: HS 578T breast
[4] = tested on: UO-31 renal
[5] = tested on: MCF7 breast
[6] = tested on: NCI-H226 lung
[7] = tested on: SK-MEL-2 melanoma
[8] = tested on: RXF 393 renal
[9] = tested on: NCI-H23 lung
[10] = tested on: K-562 leukemia

## Cc1c(N)nc(C(CC(N)=O)NCC(N)C(N)=O)nc1C(=O)NC(C(=O)NC(C)C(O)C(C)C(=O)NC(C(=O)NCCc1nc(-c2nc(C(=O)NCCCNC(C)c3ccccc3)cs2)cs1)C(C)O)C(OC1OC(CO)C(O)C(O)C1OC1OC(CO)C(O)C(OC(N)=O)C1O)c1cnc[nH]1 (stereo unspecified)
[1]
  GI50: 2.32 µM
  TGI: 24 µM and 56.6 µM
[2]
  GI50: 7.5 µM
  TGI: 50 µM and > 100 µM
[3]
  TGI: 0.727 µM
[4]
  GI50: 2.9 µM
[5]
  TGI: > 100 µM
[6]
  GI50: 1.59 µM
  TGI: 2.97 µM and 24.8 µM
[7]
  GI50: 66.5 µM
  TGI: 30.6 µM and > 100 µM
[8]
  TGI: 2.82 µM
[9]
  GI50: 3.31 µM
  TGI: 8.37 µM and 64.6 µM
[10]
  GI50: 11.8 µM
  TGI: 50 µM and > 100 µM

## CC(=O)/C=C/C1=C(c2csc3ccccc23)c2ccccc2CC1
[1]
  GI50: 31.1 µM
  TGI: > 100 µM
[2]
  GI50: 23.2 µM
  TGI: 79.4 µM
[3]
  GI50: 35 µM
  TGI: > 100 µM
[4]
  GI50: 11.6 µM
  TGI: 41.2 µM
[5]
  GI50: 21.8 µM
  TGI: 87.8 µM
[6]
  GI50: 19.8 µM
  TGI: 44.1 µM
[7]
  GI50: 15.2 µM
  TGI: 40.9 µM
[8]
  GI50: 20.2 µM
  TGI: 46.5 µM
[10]
  GI50: 18.8 µM
  TGI: > 100 µM

## C[C@H]1CNC(=O)c2cnn3ccc(nc23)N[C@H](C)c2cc(F)ccc2O1
[1]
  GI50: 3.36 µM
  TGI: > 100 µM
[2]
  GI50: 0.444 µM
  TGI: > 67.2 µM
[3]
  GI50: 0.325 µM
  TGI: 2.76 µM
[4]
  GI50: 1.21 µM
  TGI: 3.56 µM
[5]
  GI50: 0.381 µM
  TGI: > 100 µM
[6]
  GI50: 1.03 µM
  TGI: 3.83 µM
[7]
  GI50: 3.54 µM
  TGI: 24 µM
[8]
  GI50: 0.282 µM
  TGI: 1.26 µM
[9]
  GI50: 1.93 µM
  TGI: 53.1 µM
[10]
  GI50: 3.64 µM
  TGI: > 100 µM

## CC(C)c1cccc(O)c(=O)c1
[1]
  GI50: 1.23 µg/mL
[2]
  GI50: 0.312 µg/mL
[3]
  GI50: 1.98 µg/mL
  TGI: 38.6 µg/mL
[4]
  GI50: 2.58 µg/mL
  TGI: 35.5 µg/mL and > 71.1 µM
[5]
  GI50: 1.46 µg/mL
  TGI: 5.08 µg/mL
[6]
  TGI: 50.1 µM
[7]
  GI50: 6.86 µg/mL
  TGI: 32.4 µg/mL and 95.7 µM
[8]
  GI50: 0.116 µg/mL
[9]
  GI50: 35 µg/mL
  TGI: > 75 µg/mL and > 78.8 µM
[10]
  GI50: 2.38 µg/mL

## COC(=O)c1c2c(c(C)[n+]([O-])c1C)C(=O)C=C(NCc1cccc(Cl)c1)C2=O
[1]
  GI50: 0.367 µM
  TGI: 1.55 µM
[2]
  GI50: 0.444 µM
[3]
  GI50: 1.77 µM
  TGI: 6.79 µM
[4]
  GI50: 1.09 µM
  TGI: 2.35 µM
[5]
  GI50: 0.238 µM
  TGI: 0.766 µM
[6]
  GI50: 1.41 µM
  TGI: 3.55 µM
[7]
  GI50: 1.04 µM
  TGI: 2.77 µM
[8]
  GI50: 1.2 µM
  TGI: 2.53 µM
[9]
  GI50: 0.463 µM
  TGI: 2.54 µM
[10]
  GI50: 0.085 µM
  TGI: > 30.2 µM

## Cc1nc2ccccn2c1NC(=O)NNC(=S)Nc1ccc(F)cc1
[1]
  GI50: > 100 µM
  TGI: > 100 µM
[2]
  GI50: > 100 µM
  TGI: > 100 µM
[3]
  GI50: > 100 µM
  TGI: > 100 µM
[4]
  GI50: > 100 µM
  TGI: > 100 µM
[5]
  GI50: > 100 µM
  TGI: > 100 µM
[6]
  GI50: > 100 µM
  TGI: > 100 µM
[7]
  GI50: > 100 µM
  TGI: > 100 µM
[8]
  GI50: > 100 µM
  TGI: > 100 µM
[10]
  GI50: > 100 µM
  TGI: > 100 µM
